Measurements: patent publication US11649240B2, “Substituted 4-phenylpiperidines, their preparation and use” (The Trustees of Columbia University in the City of New York, priority 2014, dated 2023)
Where a name gives a salt, the structure may show the parent alone.

Tests used:
[1] = tested on: Abca4−/− mice; assay: Bisretinoid accumulation in eyes of Abca4−/− mice; format: in vivo, mouse; conditions: Abca4−/− mice starting at 17 weeks old, 25 mg/kg for 12 weeks
Description: (§1) Abca4−/− mice have A2E levels in the ˜15-19 pmoles/eye range at 17 weeks old. Mice, starting at 17 weeks old, were treated with 25 mg/kg of Compound 81 for 12 weeks.

[2] = molecular target: serum RBP4 (Mus musculus (Mouse), UniProt Q00724); assay: Serum RBP4 levels in Abca4−/− mice; format: in vivo; conditions: 25 mg/kg for 12 weeks
Description: as §1

[3] = tested on: RBP4-TTR interaction; conditions: cited from earlier work
[4] = tested on: serum RBP4 and retinol; conditions: in vivo; cited from earlier work

| Compound | bisretinoid accumulation in Abca4−/− mouse model ([1]; present-tense example) | serum RBP4 reduction in treated mice ([2]; present-tense example) | other results |
| --- | --- | --- | --- |
| O=C(c1n[nH]c2c1CCNC2)N1CCC(c2ccc(F)c(F)c2C(F)(F)F)CC1 [Compound 34] | inhibit bisretinoid accumulation | significant serum RBP4 reduction | – |
| O=C(c1n[nH]c2c1CCNC2)N1CCC(c2cccc(F)c2Cl)CC1 [Compound 40, (4-(2-Chloro-3-fluorophenyl)piperidin-1-yl) (4,5,6,7-tetrahydro-1H-pyrazolo[3,4-c]pyridin-3-yl)methanone Hydrochloride] | inhibit bisretinoid accumulation | significant serum RBP4 reduction | – |
| CC(=O)N1CCc2c(C(=O)N3CCC(c4ccc(F)c(F)c4C(F)(F)F)CC3)n[nH]c2C1 [Compound 81, 1-(3-(4-(3,4-Difluoro-2-(trifluoromethyl)phenyl)piperidine-1-carbonyl)-4,5-dihydro-1H-pyrazolo[3,4-c]pyridin-6 (7H)-yl)ethanone] | – | – | bisretinoid accumulation in Abca4−/− mouse model [1]: inhibited bisretinoid accumulation; serum RBP4 reduction in treated mice [2]: significant serum RBP4 reduction |
| O=C(c1n[nH]c2c1CNCC2)N1CCC(c2cccc(F)c2Cl)CC1 [Compound 42, (4-(2-Chloro-3-fluorophenyl)piperidin-1-yl)(4,5,6,7-tetrahydro-1H-pyrazolo[4,3-c]pyridin-3-yl)methanone Hydrochloride] | inhibit bisretinoid accumulation | significant serum RBP4 reduction | – |
| O=C(c1n[nH]c2c1CCNC2)N1CCC(c2cccc(F)c2C(F)(F)F)CC1 [Compound 30, (4-(3-Fluoro-2-(trifluoromethyl)phenyl)piperidin-1-yl) (4,5,6,7-tetrahydro-1H-pyrazolo[3,4-c]pyridin-3-yl)methanone Hydrochloride] | inhibit bisretinoid accumulation | significant serum RBP4 reduction | – |
| O=C(c1n[nH]c2c1CNC2)N1CCC(c2ccc(F)c(F)c2C(F)(F)F)CC1 [Compound 38, (4-(3,4-Difluoro-2-(trifluoromethyl)phenyl)piperidin-1-yl)(1,4,5,6-tetrahydropyrrolo[3,4-c]pyrazol-3-yl)methanone Hydrochloride] | inhibit bisretinoid accumulation | significant serum RBP4 reduction | – |
| CC1=C(/C=C/C(C)=C/C=C/C(C)=C/C(=O)Nc2ccc(O)cc2)C(C)(C)CCC1 [fenretinide, N-(4-hydroxy-phenyl)retinamide] | – | – | disruption of RBP4-TTR interaction [3]: disrupt the RBP4-TTR interaction; ocular all-trans retinol uptake and visual cycle [4]: inhibit ocular all-trans retinol uptake and slow down the visual cycle |
| O=C(c1n[nH]c2c1CNCC2)N1CCC(c2ccc(F)c(F)c2C(F)(F)F)CC1 [Compound 36, (4-(3,4-Difluoro-2-(trifluoromethyl)phenyl)piperidin-1-yl)(4,5,6,7-tetrahydro-1H-pyrazolo[4,3-c]pyridin-3-yl)methanone Trifluoroacetic Acid Salt] | inhibit bisretinoid accumulation | significant serum RBP4 reduction | – |
